Common to all, as to assay: Human PK selectivity, LDH-coupled enzyme assay
Common to all, as to assay type: biochemical

For one test, the target named is T1, Human L PK (Homo sapiens, UniProt P30613).
T1 construct: His tag; made in house; host or cells: E. coli BL-21 (DE3); construct a gift of Dr. L. Cantley
To be noted: read-out: % Inhibition Human L. From the text: (§1) Genomic DNA of MRSA strain Sanger 252 extracted using DNeasy Tissue Kit™ (Qiagen™) was used as a template to generate the His-tagged MRSA PK. Human cDNA from MCF-7 breast cancer cell line (courtesy of Dr. J Wong, BC Cancer Research Center (Vancouver, Canada) was used as a template to generate the full-length human M2 PK enzyme. The following primer sets were used creating appropriate restriction sites (NdeI and XhoI sites underlined): For cloning of MRSA PK: M27F 5′-[…]-3′ and M27R 5′-[…]-3′, for cloning of human M2 PK isoform: hM2F 5′-[…]-3′ and hM2R 5′-[…]-3′. The resulting PCR fragments for each construct were cloned into the NdeI and XhoI unique sites of the bacterial expression vector pET-28a (+) (Novagen™). […] The sequence and the correct reading frame of all constructs were verified by sequencing. Human M1, R and L PK constructs in pET-28-a(+) vectors (courtesy of Dr. L. Cantley, Harvard Medical, School (Boston, USA)) were used to generate relevant recombinant His-tagged human PK isoforms.
(§2) MRSA and human constructs in pET-28a(+) were used to express relevant recombinant PK proteins in E. coli BL-21 (DE3). The proteins were expressed and purified using Ni-NTA agarose (Qiagen™) according to the manufacturer's protocol. Briefly, cells were grown to an absorbance of 0.4-0.5 at 600 nm in 2×YT medium, then induced with 0.1 mM IPTG for 3 h at 20° C. Cells were lysed by sonication on ice (3×10-s bursts with a 30-s recovery between bursts) in lysis buffer (0.2 mg/ml lysozyme, 50 mM Tris pH 7.5, 10 mM MgCl2, 200 mM NaCl, 100 mM KCl, 10% glycerol, 10 mM imidazole, 0.5% NP-40 and 1 mM DTT containing Complete™ protease inhibitor). Cell lysates were cleared by centrifugation (18,000×g in a Beckman™ JA-20 rotor) for 20 min at 4° C. and PK isoforms were purified by batch binding to Ni-NTA resin. The resins were then packed in columns (1×2 cm) and washed with 400 column volumes lysis buffer containing 30 mM imidazole. His-tagged PK isoforms were eluted with the same buffer containing 300 mM imidazole. The proteins were dialyzed overnight at 4° C. against 2000 volumes of ice-cold 30 mM Tris pH 7.5, 25 mM KCl, 5 mM MgCl2, 10% glycerol and 1 mM DTT to remove imidazole. All purification steps were done at 4° C.; enzymes were flash-frozen and stored at −70° C. Enzymatic activity of frozen protein preparations was stable for at least 10 months and up to 5 freeze/thaw cycles. Purity and physical integrity of proteins were assessed using SDS-polyacrylamide gel electrophoresis (SDS-PAGE) followed by coomassie blue staining. Protein concentration was estimated by Bradford assay (Bio-Rad Protein Assay™) using bovine serum albumin as a standard.
(§3) Candidate MRSA PK inhibitors were assayed for their ability to inhibit enzymatic activities of MRSA and human PKs. PK activity was determined using a continuous assay coupled to lactate dehydrogenase (LDH) in which the change in absorbance at 340 nm owing to oxidation of NADH was measured using a Benchmark Plus™ microplate spectrophotometer (Bio-Rad Laboratories, Hercules, Calif.). […] Reactions were initiated by the addition of 15 nM of one of the PK enzymes. PK activity proportional to the rate of change at 340 nm was expressed as specific activity (μmol/min/mg), which is defined as the amount of PK that catalyzes the formation of one micromole of either product per minute. Inhibitors were dissolved in DMSO with the final concentration of the solvent never exceeding 1% of the assay volume. IC50 values were calculated by curve fitting on a four-parameter dose-response model with variable slope using Graphpad Prism 5.0™ (GraphPad™ Software Inc., La Jolla, Calif.). In all studies, less than 10% of total PEP was exhausted during the reaction. Reactions were performed at 30° C. for up to 5 min. All values determined represent at least two measurements, in triplicate (Tables 1-6) or duplicate unless mentioned otherwise. […]

The next test deals with T2, Human M1 PK (Homo sapiens, UniProt P14618).
T2 construct: His tag; made in house; host or cells: E. coli BL-21 (DE3); construct a gift of Dr. L. Cantley
T2 sequence (P14618 1-531 isoform P14618-2): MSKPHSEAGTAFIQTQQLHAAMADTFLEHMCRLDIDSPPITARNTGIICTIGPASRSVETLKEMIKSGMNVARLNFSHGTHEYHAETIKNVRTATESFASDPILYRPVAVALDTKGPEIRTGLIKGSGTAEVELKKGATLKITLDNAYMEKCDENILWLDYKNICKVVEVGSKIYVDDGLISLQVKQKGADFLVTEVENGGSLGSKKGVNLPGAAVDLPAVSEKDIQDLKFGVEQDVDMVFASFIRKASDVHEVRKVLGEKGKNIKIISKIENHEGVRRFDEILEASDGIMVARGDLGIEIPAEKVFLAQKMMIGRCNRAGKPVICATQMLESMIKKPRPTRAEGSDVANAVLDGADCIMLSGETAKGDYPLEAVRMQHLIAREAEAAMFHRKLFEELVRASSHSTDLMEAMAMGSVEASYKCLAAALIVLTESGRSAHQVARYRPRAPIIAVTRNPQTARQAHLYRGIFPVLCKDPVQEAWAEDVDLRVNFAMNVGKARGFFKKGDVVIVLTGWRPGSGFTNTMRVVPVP
Particulars: read-out: % Inhibition Human M1.
Excerpt: as §1, §2, §3

The next test addresses T3, Human M2 PK (Homo sapiens, UniProt P14618).
T3 construct: used as a template to generate the full-length human M2 PK enzyme; His tag (pET-28a(+) vector) (N); made in house; host or cells: E. coli BL-21 (DE3)
To be noted: read-out: % Inhibition Human M2.
Excerpt: as §1, §2, §3

Another test deals with T4, Human R PK (Homo sapiens, UniProt P30613).
T4 construct: His tag; made in house; host or cells: E. coli BL-21 (DE3); construct a gift of Dr. L. Cantley
T4 sequence (P30613 whole entry): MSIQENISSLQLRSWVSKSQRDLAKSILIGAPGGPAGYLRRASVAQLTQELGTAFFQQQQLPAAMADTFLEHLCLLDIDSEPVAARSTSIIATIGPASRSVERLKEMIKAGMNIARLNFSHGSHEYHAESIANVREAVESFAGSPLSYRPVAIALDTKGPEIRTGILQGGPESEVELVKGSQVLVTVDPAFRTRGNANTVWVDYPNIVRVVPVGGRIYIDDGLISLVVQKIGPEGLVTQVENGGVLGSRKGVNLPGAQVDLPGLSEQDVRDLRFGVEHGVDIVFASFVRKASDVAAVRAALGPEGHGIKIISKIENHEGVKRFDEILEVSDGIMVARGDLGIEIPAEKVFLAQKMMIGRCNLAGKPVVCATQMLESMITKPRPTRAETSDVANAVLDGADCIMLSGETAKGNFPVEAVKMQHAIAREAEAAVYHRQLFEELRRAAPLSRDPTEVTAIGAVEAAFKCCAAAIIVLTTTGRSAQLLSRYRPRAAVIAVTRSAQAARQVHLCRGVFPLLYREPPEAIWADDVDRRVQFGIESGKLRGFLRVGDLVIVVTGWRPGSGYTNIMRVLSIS
To be noted: read-out: % Inhibition Human R.
Excerpt: as §1, §2, §3

Molecules are shown by their SMILES. Read-outs that look alike come from different tables or passages of the source.

T1 sequence (P30613 1-543 isoform P30613-2): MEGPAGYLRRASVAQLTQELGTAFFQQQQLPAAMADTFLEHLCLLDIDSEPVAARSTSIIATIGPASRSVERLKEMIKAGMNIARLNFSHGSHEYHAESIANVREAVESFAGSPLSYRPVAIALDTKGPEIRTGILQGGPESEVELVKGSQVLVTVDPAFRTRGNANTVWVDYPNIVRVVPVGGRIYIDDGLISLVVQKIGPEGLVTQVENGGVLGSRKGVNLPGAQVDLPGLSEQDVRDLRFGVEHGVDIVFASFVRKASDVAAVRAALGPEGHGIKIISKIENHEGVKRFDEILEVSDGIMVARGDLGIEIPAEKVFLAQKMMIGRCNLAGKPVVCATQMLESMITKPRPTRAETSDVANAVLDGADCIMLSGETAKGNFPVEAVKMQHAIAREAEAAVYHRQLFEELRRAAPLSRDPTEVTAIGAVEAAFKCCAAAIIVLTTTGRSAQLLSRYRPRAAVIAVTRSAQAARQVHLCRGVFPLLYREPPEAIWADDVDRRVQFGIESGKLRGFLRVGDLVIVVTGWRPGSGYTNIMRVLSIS
T3 sequence (P14618 whole entry): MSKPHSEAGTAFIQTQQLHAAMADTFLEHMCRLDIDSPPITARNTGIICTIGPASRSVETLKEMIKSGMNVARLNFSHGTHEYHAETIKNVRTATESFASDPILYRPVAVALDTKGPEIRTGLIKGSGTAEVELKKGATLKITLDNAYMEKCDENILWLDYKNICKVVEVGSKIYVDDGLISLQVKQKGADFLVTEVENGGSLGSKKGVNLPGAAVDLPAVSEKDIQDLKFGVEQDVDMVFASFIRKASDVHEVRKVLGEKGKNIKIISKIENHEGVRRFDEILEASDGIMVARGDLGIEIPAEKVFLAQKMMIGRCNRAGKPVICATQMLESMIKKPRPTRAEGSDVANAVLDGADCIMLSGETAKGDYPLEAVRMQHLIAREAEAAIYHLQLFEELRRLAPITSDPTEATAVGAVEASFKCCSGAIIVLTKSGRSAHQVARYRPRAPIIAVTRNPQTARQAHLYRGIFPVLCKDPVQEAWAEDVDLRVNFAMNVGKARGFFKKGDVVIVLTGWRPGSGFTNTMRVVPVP

Turning to `Brc1ccc2cc(-c3cc4ccc(Br)cc4[nH]3)[nH]c2c1` [Compound 10b, 6,6′-Dibromo-1H,1′H-2,2′-biindole], the inhibition – broadly, the relative decrease from the control value, in per cent – at 10 µM at Human L PK (at 10 μM) was determined as 7.9%; on Human M1 PK (at 10 μM), 10.3%; on Human M2 PK (at 10 μM), 0.1%; at Human R PK (at 10 μM), 18.3%.
For `Cn1c(-c2cc3ccc(Br)cc3[nH]2)cc2cc(Br)ccc21` [Compound 12a, 5,6′-Dibromo-1-methyl-1H,1′H-2,2′-biindole] the same measures were 2.8%, 13.9%, 9.1% and 2.7%.
For `Brc1ccc2cc(-c3cc4ccccc4o3)[nH]c2c1` [Compound 22b, 2-(Benzofuran-2-yl)-6-bromo-1H-indole] the same measures were -6%, 5.3%, 0.4% and -5.5%.
For `Brc1ccc2c(c1)cc(-c1cc3ccc(Br)cc3[nH]1)n2CCN1CCOCC1` [Compound 20b, 4-(2-(5,6′-dibromo-1H,1′H-[2,2′-biindol]-1-yl)ethyl)morpholine] the same measures were 32.1%, 13.1%, 3.5% and 50.7%.
For the compound `COc1cc(-c2cc3ccccc3[nH]2)ccc1-c1cc2ccc(Br)cc2[nH]1` [Compound 33e, 2-(4-(1H-indol-2-yl)-2-methoxyphenyl)-6-bromo-1H-indole], the inhibition at 10 µM at Human L PK (at 10 μM) came to 4.3%; on Human M1 PK (at 10 μM), 7.3%; on Human M2 PK (at 10 μM) it was 14.6%; on Human R PK (at 10 μM), 13.5%.
For `CN1CCN(CCn2c(-c3cc4ccc(Br)cc4[nH]3)cc3cc(Br)ccc32)CC1` [Compound 20a, 5,6′-Dibromo-1-(2-(4-methylpiperazin-1-yl)ethyl)-1H,1′H-2,2′-biindole] the same measures were 16.8%, 3.2%, 1.7% and 26.1%.
Consider `OCCn1c(-c2cc3ccc(Br)cc3[nH]2)cc2cc(Br)ccc21` [Compound 17, 2-(5,6′-Dibromo-1H, 1′H-[2,2′-biindol]-1-yl)ethanol], for which the inhibition at 10 µM was found to be 6.8% at Human L PK (at 10 μM), 14.6% at Human M1 PK (at 10 μM), 12.1% on Human M2 PK (at 10 μM) and 25.2% at Human R PK (at 10 μM).
Consider `Brc1cc2cc(-c3cc4cc(Br)c(Br)cc4[nH]3)[nH]c2cc1Br` [Compound 10l, 5,5′,6,6′-Tetrabromo-1H,1′H-2,2′-biindole], for which the inhibition at 10 µM on Human L PK stood at 8.2%; at Human M1 PK, 11.1%; at Human M2 PK, 2.3%; at Human R PK, 20.7%.
Consider `Brc1ccc2[nH]c(-c3cc4cc(Br)ccc4[nH]3)cc2c1` [Compound 10i, 5,5′-Bibromo-1H,1′H-2,2′-biindole], for which the inhibition at 10 µM worked out at 9.8% at Human L PK (at 10 μM), 12.3% at Human M1 PK (at 10 μM), 0.5% on Human M2 PK (at 10 μM) and 24.4% on Human R PK (at 10 μM).
For `Brc1ccc2cc(-c3nc4ccccc4s3)[nH]c2c1` [Compound 22a, 2-(6-Bromo-1H-indol-2-yl)benzo[d]thiazole] the same measures were 7.8%, 12.4%, 3% and 21.6%.
For `Brc1ccc2[nH]c(C#Cc3cc4ccc(Br)cc4[nH]3)cc2c1` [Compound 25c, 6-Bromo-2-((5-bromo-1H-indol-2-yl)ethynyl)-1H-indole] the same measures were 14%, 19.5%, 8.7% and 27.8%.
For `Brc1ccc2[nH]c(-c3cc4ccc(Br)cc4[nH]3)cc2c1` [Compound 10c, 5,6-Bibromo-1H,1′H-2,2′-biiindole] the same measures were 6.1%, 6.9%, 8.7% and 13.6%.
As to `Brc1ccc2cc(CCc3cc4ccc(Br)cc4[nH]3)[nH]c2c1` [Compound 28a, 1,2-bis(6-bromo-1H-indol-2-yl)ethane], the inhibition at 10 µM at Human L PK (at 10 μM) worked out at 9.7%; on Human M1 PK (at 10 μM), 9.9%; at Human M2 PK (at 10 μM), 1.3%; on Human R PK (at 10 μM), 24.1%.
For `Brc1ccc2cc(-c3cc4cc(Br)c(Br)cc4[nH]3)[nH]c2c1` [Compound 10k, 5,6,6′-Tribromo-1H,1′H-2,2′-biindole] the same measures were 26.8%, 16.1%, 20.8% and 41%.
For `Brc1ccc2cc(/C=C/c3cc4ccccc4[nH]3)[nH]c2c1` [Compound 27a, (E)-2-(2-(1H-indol-2-yl)vinyl)-6-bromo-1H-indole] the same measures were 12.9%, 16.1%, -0.9% and 23.8%.

The record behind these values is patent publication US20170216252A1, “ANTI-BACTERIAL PYRUVATE KINASE MODULATOR COMPOUNDS, COMPOSITIONS, USES AND METHODS” (SIMON FRASER UNIVERSITY, priority 2014, published 2017).
